From PubChem BioAssay (NCI)
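48-hour exposure; five concentrations; linearly interpolated endpoints. At the GI50, growth is halved. TGI marks complete inhibition of growth.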

Tests used:
Assay in all cases: growth of human tumour cells (NCI), 48 h; in the data active = GI50 below about 0.43 µM; inactive = the rest
[1] = test system: DU-145 prostate
[2] = test system: RPMI-8226 leukemia
[3] = test system: HCT-15 colon
[4] = test system: NCI-H23 lung
[5] = test system: HCT-116 colon
[6] = test system: SNB-75 CNS
[7] = test system: SNB-19 CNS
[8] = test system: MOLT-4 leukemia
[9] = test system: NCI-H522 lung
[10] = test system: NCI/ADR-RES ovarian
[11] = test system: UO-31 renal
[12] = test system: OVCAR-4 ovarian
[13] = test system: EKVX NSCLC
[14] = test system: PC-3 prostate
[15] = test system: SK-MEL-2 melanoma
[16] = test system: UACC-62 melanoma
[17] = test system: CAKI-1 renal
[18] = test system: SW-620 colon
[19] = test system: ACHN renal
[20] = test system: OVCAR-5 ovarian
[21] = test system: BT-549 breast
[22] = test system: SF-295 CNS
[23] = test system: KM12 colon
[24] = test system: U251 CNS
[25] = test system: TK-10 renal
[26] = test system: HOP-62 NSCLC
[27] = test system: 786-0 renal
[28] = test system: M14 melanoma
[29] = test system: MDA-MB-435
[30] = test system: SK-MEL-28 melanoma
[31] = test system: SK-OV-3 ovarian
[32] = test system: A498 renal
[33] = test system: UACC-257 melanoma
[34] = test system: NCI-H460 lung
[35] = test system: HT29 colon
[36] = test system: NCI-H226 lung
[37] = test system: SN12C renal
[38] = test system: COLO 205 colon
[39] = test system: MCF7 breast
[40] = test system: HOP-92 NSCLC
[41] = test system: SK-MEL-5 melanoma
[42] = test system: A549 NSCLC
[43] = test system: HCC-2998 colon
[44] = test system: MDA-MB-231 breast
[45] = test system: SF-268 CNS
[46] = test system: K-562 leukemia

S=c1oc(CCCCCCCCc2nn(CNc3ccccc3)c(=S)o2)nn1CNc1ccccc1
> 100 µM: TGI [1] | TGI [2] | TGI [3] | TGI [4] | TGI [5] | TGI [6] | TGI [7] | TGI [8] | TGI [9] | TGI [10] | TGI [11] | TGI [12] | TGI [13] | TGI [14] | TGI [15] | TGI [16] | TGI [17] | TGI [18] | TGI [19] | TGI [20] | TGI [21] | TGI [22] | TGI [23] | TGI [24] | TGI [25] | TGI [26] | TGI [27] | TGI [28] | TGI [29] | TGI [30] | TGI [31] | TGI [32] | TGI [33] | TGI [34] | TGI [35] | TGI [36] | TGI [37] | TGI [38] | TGI [39] | TGI [40] | TGI [41] | TGI [42] | TGI [43] | TGI [44] | TGI [45] | TGI [46]

NC(=O)c1ncn(CC2(COC(=O)c3ccccc3)CCC2)n1
inactive: GI50 [6] 9.86 µM | GI50 [21] 82.1 µM
92.5 µM: TGI [6]
